Results reported in paper PMC10620162, “Structure—yeast α-glucosidase inhibitory activity relationship of 9-O-berberrubine carboxylates” (Scientific Reports, 2023).
Like-named read-outs stand apart in the source and are kept apart here.

Molecular target: T1, yeast α-glucosidase (Saccharomyces cerevisiae, UniProt P53341)
T1 construct: purchased Sigma Aldrich
Assay: biochemical
Settings: for inhibition at 50 µM: read-out: Inhibition at 50 μM (%), 50 μM
Protocol: Berberrubine derivatives will be assayed for yeast α-glucosidase inhibitory activity. The protocol described by Ramadhan et al. will be used[37]. Briefly, yeast α-glucosidase (0.1 U/mL) and substrate (1 mM p-nitrophenyl-α-D-glucopyranoside) were dissolved in 0.1 M phosphate buffer (pH 6.9). A 10 μL test sample was pre-incubated with α-glucosidase (40 μL) at 37 °C for 10 min. A substrate solution (50 μL) was then added to the reaction mixture and incubated at 37 °C for an additional 20 min, and terminated by adding 1 M Na2CO3 solution (100 μL). […] The percentage inhibition of activity was calculated as follows: % Inhibition = [(A0 − A1)/A0] × 100, where: A0 is the absorbance without the sample; A1 is the absorbance with the sample. The IC50 value was deduced from the plot of % inhibition versus the concentration of the test sample.

T1 sequence (P53341 whole entry): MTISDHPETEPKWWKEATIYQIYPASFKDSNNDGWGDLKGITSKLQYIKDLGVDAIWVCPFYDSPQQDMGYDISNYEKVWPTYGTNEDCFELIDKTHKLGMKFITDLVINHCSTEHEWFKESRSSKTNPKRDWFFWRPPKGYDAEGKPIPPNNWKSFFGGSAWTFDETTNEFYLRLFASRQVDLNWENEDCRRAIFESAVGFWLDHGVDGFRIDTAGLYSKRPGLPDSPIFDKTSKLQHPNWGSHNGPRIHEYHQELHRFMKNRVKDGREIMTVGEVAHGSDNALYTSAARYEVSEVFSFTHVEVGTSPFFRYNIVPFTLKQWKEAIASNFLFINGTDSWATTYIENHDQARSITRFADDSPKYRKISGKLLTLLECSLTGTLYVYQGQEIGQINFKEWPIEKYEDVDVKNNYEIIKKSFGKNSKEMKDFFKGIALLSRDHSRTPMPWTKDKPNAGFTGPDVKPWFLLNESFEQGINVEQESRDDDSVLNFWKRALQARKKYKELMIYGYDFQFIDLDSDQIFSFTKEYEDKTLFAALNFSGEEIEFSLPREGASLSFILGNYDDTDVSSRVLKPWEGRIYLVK

## COc1ccc2cc3[n+](cc2c1O)CCc1cc2c(cc1-3)OCO2 [BBRB, 9-hydroxy-10-methoxy-5,6-dihydro-[1,3]dioxolo[4,5-g]isoquinolino[3,2-a]isoquinolin-7-ium chloride, reference compound]
  inhibition at 50 µM: < 0%

## COc1ccc2cc3[n+](cc2c1OC(=O)c1ccccc1)CCc1cc2c(cc1-3)OCO2.[Cl-] [Compound 1, 9-(benzoyloxy)-10-methoxy-5,6-dihydro-[1,3]dioxolo[4,5-g]isoquinolino[3,2-a]isoquinolin-7-ium chloride]
  IC50: 25.3 ± 2.63 µM
  inhibition at 50 µM: 58%
50 μM
  Inhibition at 50 μM (%): 57.67%

## COc1ccccc1C(=O)Oc1c(OC)ccc2cc3[n+](cc12)CCc1cc2c(cc1-3)OCO2 [Compound 2, 10-methoxy-9-((2-methoxybenzoyl)oxy)-5,6-dihydro-[1,3]dioxolo[4,5-g]isoquinolino[3,2-a]isoquinolin-7-ium chloride]
  IC50: 19.5 ± 1.62 µM
  inhibition at 50 µM: 79.1%

## COc1cccc(C(=O)Oc2c(OC)ccc3cc4[n+](cc23)CCc2cc3c(cc2-4)OCO3)c1 [Compound 3, 10-methoxy-9-((3-methoxybenzoyl)oxy)-5,6-dihydro-[1,3]dioxolo[4,5-g]isoquinolino[3,2-a]isoquinolin-7-ium chloride]
  IC50: 11.6 ± 1.19 µM
  inhibition at 50 µM: 89.7%

## COc1ccc(C(=O)Oc2c(OC)ccc3cc4[n+](cc23)CCc2cc3c(cc2-4)OCO3)cc1 [Compound 4, 10-methoxy-9-((4-methoxybenzoyl)oxy)-5,6-dihydro-[1,3]dioxolo[4,5-g]isoquinolino[3,2-a]isoquinolin-7-ium chloride]
  IC50: 18.4 ± 1.31 µM
  inhibition at 50 µM: 80%

## COc1ccc2cc3[n+](cc2c1OC(=O)c1cccc(O)c1)CCc1cc2c(cc1-3)OCO2 [Compound 5, 9-((3-hydroxybenzoyl)oxy)-10-methoxy-5,6-dihydro-[1,3]dioxolo[4,5-g]isoquinolino[3,2-a]isoquinolin-7-ium chloride]
read-out: IC50
  IC50: 7.51 ± 0.42 µM
  inhibition at 50 µM: 98.1%

## COc1ccc(C(=O)Oc2c(OC)ccc3cc4[n+](cc23)CCc2cc3c(cc2-4)OCO3)cc1OC [Compound 6, 9-((3,4-dimethoxybenzoyl)oxy)-10-methoxy-5,6-dihydro-[1,3]dioxolo[4,5-g]isoquinolino[3,2-a]isoquinolin-7-ium chloride]
  IC50: 19.1 ± 1.01 µM
  inhibition at 50 µM: 73.9%

## COc1ccc2cc3[n+](cc2c1OC(=O)c1ccc2c(c1)OCO2)CCc1cc2c(cc1-3)OCO2 [Compound 7, 9-((benzo[d][1,3]dioxole-5-carbonyl)oxy)-10-methoxy-5,6-dihydro-[1,3]dioxolo[4,5-g]isoquinolino[3,2-a]isoquinolin-7-ium chloride]
read-out: IC50
  IC50: 6.44 ± 0.5 µM
  inhibition at 50 µM: 99.7%

## COc1cc(C(=O)Oc2c(OC)ccc3cc4[n+](cc23)CCc2cc3c(cc2-4)OCO3)cc(OC)c1OC [Compound 8, 10-methoxy-9-((3,4,5-trimethoxybenzoyl)oxy)-5,6-dihydro-[1,3]dioxolo[4,5-g]isoquinolino[3,2-a]isoquinolin-7-ium chloride]
  IC50: 23.9 ± 1.87 µM
  inhibition at 50 µM: 72%

## COc1ccc2cc3[n+](cc2c1OC(=O)c1ccccc1Cl)CCc1cc2c(cc1-3)OCO2 [Compound 10, 9-((2-chlorobenzoyl)oxy)-10-methoxy-5,6-dihydro-[1,3]dioxolo[4,5-g]isoquinolino[3,2-a]isoquinolin-7-ium chloride]
  IC50: 12.2 ± 0.82 µM
  inhibition at 50 µM: 88.5%

## COc1ccc2cc3[n+](cc2c1OC(=O)c1cccc(Cl)c1)CCc1cc2c(cc1-3)OCO2 [Compound 11, 9-((3-chlorobenzoyl)oxy)-10-methoxy-5,6-dihydro-[1,3]dioxolo[4,5-g]isoquinolino[3,2-a]isoquinolin-7-ium chloride]
read-out: IC50
  IC50: 9.43 ± 0.8 µM
  inhibition at 50 µM: 95.5%

## COc1ccc2cc3[n+](cc2c1OC(=O)c1ccc(Cl)cc1)CCc1cc2c(cc1-3)OCO2 [Compound 12, 9-((4-chlorobenzoyl)oxy)-10-methoxy-5,6-dihydro-[1,3]dioxolo[4,5-g]isoquinolino[3,2-a]isoquinolin-7-ium chloride]
  IC50: 10.6 ± 0.6 µM
  inhibition at 50 µM: 96.5%

## COc1ccc2cc3[n+](cc2c1OC(=O)c1ccccc1F)CCc1cc2c(cc1-3)OCO2 [Compound 13, 9-((2-fluorobenzoyl)oxy)-10-methoxy-5,6-dihydro-[1,3]dioxolo[4,5-g]isoquinolino[3,2-a]isoquinolin-7-ium chloride]
  IC50: 24.9 ± 1.78 µM
  inhibition at 50 µM: 72%

## COc1ccc2cc3[n+](cc2c1OC(=O)c1cccc(F)c1)CCc1cc2c(cc1-3)OCO2 [Compound 14, 9-((3-fluorobenzoyl)oxy)-10-methoxy-5,6-dihydro-[1,3]dioxolo[4,5-g]isoquinolino[3,2-a]isoquinolin-7-ium chloride]
  IC50: 32.8 ± 1.88 µM
  inhibition at 50 µM: 63%

## COc1ccc2cc3[n+](cc2c1OC(=O)c1ccc(F)cc1)CCc1cc2c(cc1-3)OCO2 [Compound 15, 9-((4-fluorobenzoyl)oxy)-10-methoxy-5,6-dihydro-[1,3]dioxolo[4,5-g]isoquinolino[3,2-a]isoquinolin-7-ium chloride]
  IC50: 21.3 ± 1.97 µM
  inhibition at 50 µM: 73.9%

## COc1ccc2cc3[n+](cc2c1OC(=O)c1ccccc1Br)CCc1cc2c(cc1-3)OCO2 [Compound 16, 9-((2-bromobenzoyl)oxy)-10-methoxy-5,6-dihydro-[1,3]dioxolo[4,5-g]isoquinolino[3,2-a]isoquinolin-7-ium chloride]
read-out: IC50
  IC50: 6.45 ± 0.52 µM
  inhibition at 50 µM: 95.3%

## COc1ccc2cc3[n+](cc2c1OC(=O)c1ccccc1I)CCc1cc2c(cc1-3)OCO2 [Compound 17, 9-((2-iodobenzoyl)oxy)-10-methoxy-5,6-dihydro-[1,3]dioxolo[4,5-g]isoquinolino[3,2-a]isoquinolin-7-ium chloride]
read-out: IC50
  IC50: 9.24 ± 0.5 µM
  inhibition at 50 µM: 94.9%

## COc1ccc2cc3[n+](cc2c1OC(=O)c1ccccc1C(F)(F)F)CCc1cc2c(cc1-3)OCO2 [Compound 18, 10-methoxy-9-((2-(trifluoromethyl)benzoyl)oxy)-5,6-dihydro-[1,3]dioxolo[4,5-g]isoquinolino[3,2-a]isoquinolin-7-ium chloride]
  IC50: 15.7 ± 1.34 µM
  inhibition at 50 µM: 86.1%

## COc1ccc2cc3[n+](cc2c1OC(=O)c1ccccc1[N+](=O)[O-])CCc1cc2c(cc1-3)OCO2 [Compound 19, 10-methoxy-9-((2-nitrobenzoyl)oxy)-5,6-dihydro-[1,3]dioxolo[4,5-g]isoquinolino[3,2-a]isoquinolin-7-ium chloride]
  IC50: 10.5 ± 1.03 µM
  inhibition at 50 µM: 81.6%

## COc1ccc2cc3[n+](cc2c1OC(=O)c1ccc(C#N)cc1)CCc1cc2c(cc1-3)OCO2 [Compound 20, 9-((4-cyanobenzoyl)oxy)-10-methoxy-5,6-dihydro-[1,3]dioxolo[4,5-g]isoquinolino[3,2-a]isoquinolin-7-ium chloride]
  IC50: 26.5 ± 2.5 µM
  inhibition at 50 µM: 55.6%

## COc1ccc2cc3[n+](cc2c1OC(=O)c1c(Cl)cccc1Cl)CCc1cc2c(cc1-3)OCO2 [Compound 21, 9-((2,6-dichlorobenzoyl)oxy)-10-methoxy-5,6-dihydro-[1,3]dioxolo[4,5-g]isoquinolino[3,2-a]isoquinolin-7-ium chloride]
  IC50: 5.86 ± 0.35 µM
  inhibition at 50 µM: 96.6%

## COc1ccc2cc3[n+](cc2c1OC(=O)c1ccccc1C)CCc1cc2c(cc1-3)OCO2 [Compound 22, 10-methoxy-9-((2-methylbenzoyl)oxy)-5,6-dihydro-[1,3]dioxolo[4,5-g]isoquinolino[3,2-a]isoquinolin-7-ium chloride]
  IC50: 18.1 ± 0.68 µM
  inhibition at 50 µM: 90.6%

## COc1ccc2cc3[n+](cc2c1OC(=O)c1ccc(C)cc1)CCc1cc2c(cc1-3)OCO2 [Compound 23, 10-methoxy-9-((4-methylbenzoyl)oxy)-5,6-dihydro-[1,3]dioxolo[4,5-g]isoquinolino[3,2-a]isoquinolin-7-ium chloride]
  IC50: 17.5 ± 1.11 µM
  inhibition at 50 µM: 78.9%

## CCc1ccc(C(=O)Oc2c(OC)ccc3cc4[n+](cc23)CCc2cc3c(cc2-4)OCO3)cc1 [Compound 24, 9-((4-ethylbenzoyl)oxy)-10-methoxy-5,6-dihydro-[1,3]dioxolo[4,5-g]isoquinolino[3,2-a]isoquinolin-7-ium chloride]
  IC50: 12.5 ± 0.99 µM
  inhibition at 50 µM: 81%

## COc1ccc2cc3[n+](cc2c1OC(=O)c1ccc(C(C)(C)C)cc1)CCc1cc2c(cc1-3)OCO2 [Compound 25, 9-((4-(tert-butyl)benzoyl)oxy)-10-methoxy-5,6-dihydro-[1,3]dioxolo[4,5-g]isoquinolino[3,2-a]isoquinolin-7-ium chloride]
  IC50: 3.53 ± 0.31 µM
  inhibition at 50 µM: 98.9%

## COc1ccc2cc3[n+](cc2c1OC(=O)c1cccc2ccccc12)CCc1cc2c(cc1-3)OCO2 [Compound 27, 9-((1-naphthoyl)oxy)-10-methoxy-5,6-dihydro-[1,3]dioxolo[4,5-g]isoquinolino[3,2-a]isoquinolin-7-ium chloride]
read-out: IC50
  IC50: 2.67 ± 0.27 µM
  inhibition at 50 µM: 99.8%

## COc1ccc2cc3[n+](cc2c1OC(=O)/C(C)=C/c1ccccc1)CCc1cc2c(cc1-3)OCO2 [Compound 30, (E)-10-methoxy-9-((2-methyl-3-phenylacryloyl)oxy)-5,6-dihydro-[1,3]dioxolo[4,5-g]isoquinolino[3,2-a]isoquinolin-7-ium chloride]
  IC50: 10.3 ± 0.84 µM
  inhibition at 50 µM: 91.9%

## COc1ccc2cc3[n+](cc2c1OC(=O)/C=C/c1ccc2c(c1)OCO2)CCc1cc2c(cc1-3)OCO2 [Compound 31, (E)-9-((3-(benzo[d][1,3]dioxol-5-yl)acryloyl)oxy)-10-methoxy-5,6-dihydro-[1,3]dioxolo[4,5-g]isoquinolino[3,2-a]isoquinolin-7-ium chloride]
read-out: IC50
  IC50: 4.64 ± 0.55 µM
  inhibition at 50 µM: 98.9%
